Results on 11 compounds are retold here after PubChem BioAssay (NCI).

Test systems include 786-0 renal; HCT-116 colon; MALME-3M melanoma; NCI-H226 lung; NCI-H23 lung; RPMI-8226 leukemia; SF-539 CNS; TK-10 renal; UO-31 renal; NCI-H522 lung.
Holding throughout (assay): NCI tumour cell line growth inhibition, 48 h

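Cells were grown in 96-well plates and exposed to each compound for 48 hours at five concentrations; endpoints were interpolated linearly between bracketing concentrations, or set to the highest concentration if not reached. GI50: concentration for 50% inhibition of growth. At the TGI there is no net growth.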

With `COc1ccc(C(=S)c2cc(OC)c(OC)c(OC)c2)cc1OC(=O)CCl`, the GI50 in the assay on 786-0 renal is 0.183 µM; in the assay on HCT-116 colon, below 0.0174 µM; in the assay on MALME-3M melanoma, 0.58 µM; with NCI-H226 lung it was 2.77 µM; with NCI-H23 lung, 0.051 µM; in the assay with RPMI-8226 leukemia, below 0.0196 µM. For the same compound, the results for the GI50 in the assay with SF-539 CNS, in the assay with TK-10 renal and in the assay with UO-31 renal were below 0.011 µM, 32.6 µM and 0.144 µM, respectively. The TGI was above 100 µM with 786-0 renal; above 100 µM in the assay with HCT-116 colon; above 76.6 µM with MALME-3M melanoma; above 100 µM in the assay on NCI-H226 lung; above 100 µM in the assay on NCI-H23 lung; 25.2 µM with RPMI-8226 leukemia. For the same compound, the TGI in the assay on SF-539 CNS was 0.0499 µM; in the assay on TK-10 renal it was above 100 µM; in the assay on UO-31 renal it was above 95.7 µM.

For the compound `CCN1C(C)=NC2C(=O)c3ccccc3C(=O)C21` (configuration not stated), the TGI in the assay on 786-0 renal, in the assay on HCT-116 colon, in the assay with MALME-3M melanoma, in the assay with NCI-H226 lung, with NCI-H23 lung and in the assay with RPMI-8226 leukemia was above 100 µM throughout. The TGI with SF-539 CNS, in the assay with TK-10 renal and in the assay with UO-31 renal was above 100 µM in each case.

Consider `C/C(=N\O)c1sc(-n2nc(-c3ccccc3)cc2-c2ccccc2)nc1C`, for which the TGI in the assay with 786-0 renal worked out at 15.8 µM; in the assay with HCT-116 colon it was 17.1 µM; with MALME-3M melanoma, 31 µM; in the assay with NCI-H226 lung, 17.6 µM; in the assay with NCI-H23 lung, 15.1 µM; in the assay with NCI-H522 lung, 17 µM. The TGI was 23.6 µM in the assay with RPMI-8226 leukemia, 16.7 µM in the assay with SF-539 CNS and 15.3 µM in the assay on UO-31 renal.

Turning to `CCOC(=O)C12CCCC1(O)N(NC(=O)c1cccc(Cl)c1)C(C)=C2C(=O)OC` (configuration not stated), the TGI in the assay on 786-0 renal, in the assay with HCT-116 colon, with MALME-3M melanoma, with NCI-H226 lung, with NCI-H522 lung and with RPMI-8226 leukemia was above 100 µM each time. Also, the TGI with SF-539 CNS and in the assay with UO-31 renal was above 100 µM throughout.

Consider `C=C1C(=O)O[C@@H]2[C@H]1CC[C@H](C)[C@]1(O)CCC(=O)[C@@]21C`, for which the TGI in the assay on 786-0 renal, with HCT-116 colon, in the assay with MALME-3M melanoma, with NCI-H226 lung, with NCI-H23 lung and in the assay with RPMI-8226 leukemia was above 10 µM throughout. For the same compound, the TGI in the assay with SF-539 CNS is above 10 µM; in the assay on TK-10 renal it was above 10 µM; in the assay with UO-31 renal, 4.76 µM.

As for `C[C@H](c1ccc(Cl)cc1N)N1C(=O)c2cc(I)ccc2N(CCCN2CCN(C)CC2)C(=O)[C@@H]1c1ccc(Cl)cc1`, the GI50 in the assay with 786-0 renal is 1.83 µM; with HCT-116 colon, 1.3 µM; with MALME-3M melanoma it was 0.242 µM; in the assay on NCI-H226 lung, 1.33 µM; in the assay with NCI-H23 lung it was 2.18 µM; in the assay with RPMI-8226 leukemia, 1.7 µM. The GI50 is 1.61 µM in the assay on TK-10 renal and 0.359 µM with UO-31 renal. Besides, the TGI in the assay with 786-0 renal came to 3.37 µM; with HCT-116 colon, 2.63 µM; in the assay on MALME-3M melanoma it was 1.27 µM; in the assay on NCI-H226 lung it was 2.86 µM; in the assay with NCI-H23 lung, 5.86 µM; in the assay on RPMI-8226 leukemia, 3.69 µM. The TGI came to 3.07 µM with TK-10 renal and 1.9 µM in the assay with UO-31 renal.

Take `CCN1C(=O)N(CC)C2C1NN=c1s/c(=C3\C(=O)N(CCC(C)C)c4ccccc43)c(=O)n12` (configuration not stated): the GI50 in the assay on 786-0 renal was 1.83 µM; in the assay with HCT-116 colon, 1.06 µM; with NCI-H226 lung, 2.52 µM; with NCI-H23 lung it was 1.9 µM; in the assay with NCI-H522 lung, 1.01 µM; in the assay on RPMI-8226 leukemia it was 1.68 µM. The GI50 in the assay on SF-539 CNS was 1.11 µM; in the assay with TK-10 renal, 9.44 µM. The TGI with 786-0 renal is 4.5 µM; in the assay on HCT-116 colon, 2.49 µM; in the assay on NCI-H226 lung, 7.69 µM; in the assay on NCI-H23 lung, 5.47 µM; with NCI-H522 lung, 4.18 µM; in the assay on RPMI-8226 leukemia, 5.77 µM. Also, the TGI turned out to be 2.42 µM in the assay with SF-539 CNS and 71.7 µM with TK-10 renal.

With `Cc1ccc(-c2csc(N(C(=O)N3CCN(c4cc5c(cc4F)c(=O)c(C(=O)O)cn5C4CC4)CC3)c3ccccc3)n2)cc1`, the GI50 with 786-0 renal is 0.292 µM; in the assay with HCT-116 colon it was 0.333 µM; in the assay with NCI-H226 lung it was 0.338 µM; in the assay on NCI-H23 lung, 0.317 µM; with NCI-H522 lung it was 0.292 µM; with RPMI-8226 leukemia it was 0.368 µM. The GI50 in the assay with TK-10 renal was 0.541 µM. Moreover, the TGI was 1.83 µM in the assay on 786-0 renal; above 100 µM in the assay on HCT-116 colon; above 100 µM in the assay with NCI-H226 lung; above 100 µM with NCI-H23 lung; above 100 µM with NCI-H522 lung; above 100 µM in the assay with RPMI-8226 leukemia. The compound further displayed a TGI in the assay with TK-10 renal of 11.5 µM.

On to `O=C(O)C1C2C=CC(O2)C1C(=O)Nc1ccccc1` (configuration not stated), for which the TGI in the assay on 786-0 renal, in the assay with HCT-116 colon, with MALME-3M melanoma, with NCI-H226 lung, with NCI-H23 lung and in the assay on NCI-H522 lung was above 100 µM throughout. Further, the TGI with RPMI-8226 leukemia, in the assay on TK-10 renal and in the assay on UO-31 renal was above 100 µM throughout.

In the case of `CC(=O)[CH-]C(=O)c1ccccc1.CC(=O)[CH-]C(=O)c1ccccc1.O=C([O-])C[O-].O=C([O-])C[O-].[Ti+4]`, the GI50 is 71.7 µM with 786-0 renal; 21.8 µM in the assay on HCT-116 colon; 34.3 µM with MALME-3M melanoma; 19.4 µM in the assay with NCI-H226 lung; 17.5 µM in the assay on NCI-H522 lung; 49.9 µM in the assay on RPMI-8226 leukemia. The GI50 was 41.8 µM in the assay on SF-539 CNS and 71.4 µM in the assay with UO-31 renal. In addition, the TGI in the assay on 786-0 renal is above 100 µM; in the assay with HCT-116 colon, above 100 µM; in the assay on MALME-3M melanoma it was above 100 µM; with NCI-H226 lung it was 73 µM; with NCI-H522 lung, 70.5 µM; with RPMI-8226 leukemia it was above 100 µM. The TGI with SF-539 CNS and with UO-31 renal was above 100 µM in each case.

Turning to `O=C(O)C(=O)Cc1ccc2c(c1)OCO2`, the TGI in the assay with 786-0 renal, in the assay on HCT-116 colon, in the assay on NCI-H226 lung, in the assay with NCI-H23 lung, in the assay on RPMI-8226 leukemia and in the assay with SF-539 CNS was above 100 µM each time. The TGI in the assay on TK-10 renal and with UO-31 renal was above 100 µM in each case.
